From patent publication US12275685B2, “Oligo-benzamide analogs and their use in cancer treatment” (Board of Regents, The University of Texas System, priority 2018, dated 2025)
Like-named read-outs stand apart in the source and are kept apart here.

Assays:
[1] = tested on: ES2 and SKOV3 ovarian cancer cells; assay: Cell cycle arrest; format: cell-based; conditions: S phase
[2] = tested on: normal ovarian surface epithelial cells (IOSE); assay: MTT assay in IOSE cells; format: cell-based
Protocol: (§1) FIGS. 42A-D: OCa cells were treated with ERX-11 (FIG. 42A) or ERX-208 (FIG. 42B). Primary OCa cells derived from ascites were treated with ERX-208 for 72 h (FIG. 42C) and cell viability by MTT assays. (FIG. 42D) Effect of ERX-208 on viability of IOSE cells was measured using MTT assays and TOV21G was used as +ve control.
(§2) ERX-208. […] Functionally, ERX-208 causes growth inhibition of OCa cells, as noted by MTT assays using five established OCa cells (ES2, SKOV3, A2780, TOV21G, TOV112D) and five primary OCa cells derived from HGSOC patient ascites (AS21, AS23, AS25, AS28, AS29) (FIGS. 42B-C). […] The inventor noted an IC50 of ˜50-100 nM for ERX-208 both for inducing ERS and in reducing the growth of OCa cells.

[3] = tested on: ES2 and SKOV3 ovarian cancer cells; assay: Colony formation assay; format: cell-based
Protocol: FIG. 43: ES2 and SKOV3 cells were treated with ERX-208 and its effect on cell survival was measured using colony formation assays. ****p<0.0001.
as §2

[4] = tested on: carboplatin resistant OCa cells; assay: Chemotherapy resistant OCa cells, MTT and apoptosis assay; format: cell-based
Protocol: (§3) FIGS. 49A-F: (FIGS. 49A-B) Effect of ERX-208 on chemotherapy resistant OCa cells was measured by MTT and apoptosis assay. (FIGS. 49C-F) Platinum-resistant PDX tumors were treated with vehicle or ERX-208 (10 mg/kg/day/i.p). Tumor volume (FIG. 49C), weights (FIG. 49D) tumors picture (FIG. 49E), bodyweights (FIG. 49F) are shown. ** P<0.01, ***p<0.001 ****p<0.0001.
(§4) ERX-208 is effective in reducing growth of chemotherapy resistant OCa. OCa initially responds to chemotherapy; however, majority will develop chemotherapy resistance. […] The inventors conducted a proof of principle study using a therapy resistant HGSOC PDX model received from the UTHealth OBGYN PDX core. ERX-208 treatment resulted ˜60% reduction in tumor volume (FIGS. 49C-F).

[5] = tested on: ES2 and SKOV3 ovarian cancer cells; assay: Matrigel invasion chamber assay; format: cell-based
Protocol: FIG. 44: ES2 and SKOV3 cells were treated with ERX-208 and its effect on invasion was measured using Matrigel invasion chamber assays. ****p<0.0001.
as §2

[6] = tested on: OCa cells; assay: Caspase-Glo 3/7 apoptosis assay; format: cell-based
Protocol: (§5) FIGS. 12A-12D show the effect of TK208 against ovarian cancer cell lines ES2 (FIGS. 12A & 12B) and SKOV3 (FIGS. 12C & 12D).
FIG. 45: ERX-208 effect on apoptosis of OCa cells was measured using Caspase-Glo® 3/7 Assays. ****p<0.0001.
as §2

[7] = tested on: ES2 CDX tumors; assay: ES2 CDX tumors; format: in vivo, nude mice; conditions: 15 days
Protocol: FIG. 47: ES2/GFP/LUC cells were injected i.p. and tumors established. Mice (n=5) were treated with vehicle or ERX-208 (10 mg/kg/day/i.p). Tumor volume, tumor weight, number of tumor nodules are shown. **p<0.01,****p<0.0001.
(§6) ERX-208 suppressed growth of ES2 CDX tumors. ES2 cells stably labelled with GFP/LUC reporter (2×10^5) were injected i.p. into nude mice. Following establishment of tumors, mice (n=5/group) were randomized and treated for 5 days/week with either 10 mg/kg/ip of ERX-208 or vehicle. […] ERX-208 is effective in reducing growth of HGSOC PDX tumors. Following establishment of PDX tumors, NSG mice (n=6/group) were randomized and treated for 5 days/week with either 10 mg/kg/ip of ERX-208 or vehicle.

[8] = tested on: OCa cells; assay: MTT assay in OCa cells; format: cell-based
Protocol: as §5, §1, §2

[9] = tested on: OCa cells; assay: ER stress (ERS)/UPR induction in OCa cells, RT-PCR and western; format: cell-based
Protocol: FIG. 40: Time course of induction of sXBP1 and CHOP mRNA in 4 OCa cell lines—ES2, SKOV3, OVCAR3 and OVCAR4 by ERX-208. Following treatment of OCa cell lines with 100 nM ERX-208, cells were harvested at various time points and lysates subjected to RT-PCR for both CHOP and sXBP1.
FIG. 41: OCa cells were treated with ERX-208 for 16 h and the status of UPR proteins were determined using western blotting.
as §2

[10] = tested on: ovarian tumor; assay: Ovarian xenograft and PDX models of TK208; format: in vivo, mouse
Protocol: FIGS. 33A-H. FIGS. 33A-D show ovarian cancer xenografts (ES2) treated with vehicle or TK208 (ERX-208). Tumor volume (FIG. 33A), body weight (FIG. 33B) distribution of tumor weights at necropsy (FIG. 33C) and nodules (FIG. 33D) were graphed. FIGS. 33E-H show ovarian PDX tumors were treated with vehicle or TK208 (ERX-208). Tumor volume (FIG. 33E), distribution of tumor weights at necropsy (FIG. 33F) and tumor images (FIG. 33G) and body weight (FIG. 33H) were graphed.
The inventors have tested the in vivo activity of TK208 (ERX-208) using both ovarian xenograft and PDX models.

[11] = tested on: ovarian cancer cells; assay: Growth inhibition of ovarian cancer cells; format: cell-based
Excerpt: (§7) FIGS. 10A & 10B show effects of TK208 against cancer cells.
(§8) In addition, another tris-benzmaide compound TK208 was synthesized and tested against breast cancer and ovarian cancer cell lines (FIGS. 10-15). […] These compounds (e.g., TK41, TK208, TK308 (FIG. 21), TK309 (FIG. 22), TK314, TK315) are extremely potent compounds that inhibit tumor growth and kill breast and ovarian cancer cells and as such, they are superb therapeutic candidates for such diseases.

[12] = tested on: therapy resistant HGSOC PDX; assay: Therapy resistant HGSOC PDX model; format: in vivo, mice; conditions: 10 mg/kg/day/i.p
Protocol: as §3, §4

[13] = tested on: HGSOC PDX tumors; assay: HGSOC PDX tumors; format: in vivo, NSG mice; conditions: 21 days
Protocol: FIGS. 48A-F: OCa PDX (n=6) tumors were established in the flanks of NSG mice. When the tumors reached 200 mm^3, treatment with vehicle or 10 mg/kg/day/i.p. ERX-208 was initiated. (FIG. 48A) Tumor volume, (FIG. 48B) tumor weight, (FIG. 48C) tumors picture, and
(FIG. 48D) body weight is shown. (FIGS. 48E-F) IHC analysis of GRP 78 as a marker of ER stress *p<0.05; **p<0.01, ****p<0.0001.
as §6

[14] = tested on: triple-negative breast cancer cells (TNBC); assay: Growth inhibition of TNBC cells; format: cell-based
Excerpt: as §7
TNBC is difficult to be treated and currently there are no good drugs available in the market.
as §8

IC50 ([9]; OCa cells, read-out: IC50 for inducing ERS): 50 to 100 nM
IC50 [11]: 10 to 100 nM
IC50 [14]: 10 to 100 nM
Compound: CC(C)COc1cc(C(=O)Nc2ccc(C(=O)N[C@H]3CC[C@H](C(=O)Nc4cnc5ccccc5c4)CC3)cc2OCC(C)C)ccc1NC(=O)c1ccc([N+](=O)[O-])c(OCCO)c1 [TK208]
growth arrest [1]: promotes growth arrest
activity in IOSE [2]: limited activity
colony formation [3]: reduces colony formation
colony formation ([3]; listed as ERX-208): reduced colony formation
apoptosis of carboplatin resistant OCa cells [4]: promoted apoptosis
viability of carboplatin resistant OCa cells [4]: significantly reduced viability
invasion [5]: reduces invasion
invasion ([5]; listed as ERX-208): reduced
apoptosis [6]: promotes apoptosis
reduction of tumor volume ([7]; 10 mg/kg/ip 5 days/week, Xenogen-IVIS): ~60%
body weight ([7]; 10 mg/kg/ip): no significant change in body weight
reduction in tumor nodules ([7]; 10 mg/kg/ip): ~50%
reduction in tumor weight ([7]; 10 mg/kg/ip): ~50%
activity against OCa cells / cell viability [8]: reduces cell viability
IC50 ([8]; read-out: IC50 in reducing the growth of OCa cells): 50 to 100 nM
induction of CHOP mRNA ([9]; 100 nM, within 24 h): > 15 fold
induction of sXBP1 mRNA ([9]; 100 nM, within 24 h): > 10 fold
induction of UPR components at the protein level ([9]; multiple OCa cell lines): induce classic UPR components peIF2a, CHOP and LC3B
mouse body weight ([10]; mouse, in vivo): no effect on mouse body weight
reduction of ovarian tumor volume ([10]; xenograft and PDX models): good efficacy
reduction in tumor volume [12]: ~60%
reduction of tumor volume ([13]; 10 mg/kg/ip 5 days/week): ~68%
body weight ([13]; 10 mg/kg/ip): no significant changes in body weight
reduction in tumor weight ([13]; 10 mg/kg/ip): 60%
